Test system: C57BL/6 mice
Test: Lung RNA microarray analysis (SAM dysregulated genes) with RT-PCR and BAL ELISA validation
Format: in vivo, mouse
[1] = VILIa-rhPBEF vs. Control, SAM, fold change 2
[2] = VILIa-rhPBEF vs. VILIa, SAM, fold change 2
[3] = rhPBEF vs. Control, SAM, fold change 2

rhPBEF: Recombinant human soluble PBEF/visfatin, a 52 kDa protein containing 465 amino acid residues, purchased from PeproTech
Significant probe sets [1]: 836 | Unique Down [1]: 258 | Unique Up [1]: 432 | Unique gene (dysregulated genes) [1]: 690 | Significant probe sets [2]: 82 | Unique Down [2]: 0 | Unique Up [2]: 65 | Unique gene (differentially expressed genes) [2]: 65 | BCL3 DNA microarray, average fold change increase over control (rhPBEF): 7 fold change | BCL3 RNA (RT-PCR), average fold change increase over control (rhPBEF): 4 fold change | CxCL1 (KC) Protein (BAL levels by ELISA), average fold change increase over control (rhPBEF): 43 fold change | CxCL1 (KC) RNA (RT-PCR), average fold change increase over control (rhPBEF): 146 fold change | CxCL2 (MIP2α) DNA microarray, average fold change increase over control (rhPBEF): 2290 fold change | CxCL2 (MIP2α) Protein (BAL levels by ELISA), average fold change increase over control (rhPBEF): 115 fold change | CxCL2 (MIP2α) RNA (RT-PCR), average fold change increase over control (rhPBEF): 613 fold change | IL-1-β DNA microarray, average fold change increase over control (rhPBEF): 70 fold change | IL-1-β Protein (BAL levels by ELISA), average fold change increase over control (rhPBEF): 3 fold change | IL-6 DNA microarray, average fold change increase over control (rhPBEF): 240 fold change | IL-6 Protein (BAL levels by ELISA), average fold change increase over control (rhPBEF): 9 fold change | MMP9 DNA microarray, average fold change increase over control (rhPBEF): 16 fold change | MMP9 RNA (RT-PCR), average fold change increase over control (rhPBEF): 16 fold change | Map3k8 RNA (RT-PCR), average fold change increase over control (rhPBEF): 1 fold change | TNF-α Protein (BAL levels by ELISA), average fold change increase over control (rhPBEF): 43 fold change | BCL3 RNA (RT-PCR), average fold change increase over control (rhPBEF VILIa): 10 fold change | CxCL1 (KC) Protein (BAL levels by ELISA), average fold change increase over control (rhPBEF VILIa): 45 fold change | CxCL1 (KC) RNA (RT-PCR), average fold change increase over control (rhPBEF VILIa): 148 fold change | CxCL2 (MIP2α) Protein (BAL levels by ELISA), average fold change increase over control (rhPBEF VILIa): 196 fold change | CxCL2 (MIP2α) RNA (RT-PCR), average fold change increase over control (rhPBEF VILIa): 1479 fold change | IL-1-β DNA microarray, average fold change increase over control (rhPBEF VILIa): 87 fold change | IL-1-β Protein (BAL levels by ELISA), average fold change increase over control (rhPBEF VILIa): 3 fold change | IL-6 DNA microarray, average fold change increase over control (rhPBEF VILIa): 900 fold change | IL-6 Protein (BAL levels by ELISA), average fold change increase over control (rhPBEF VILIa): 27 fold change | MMP9 RNA (RT-PCR), average fold change increase over control (rhPBEF VILIa): 1 fold change | Map3k8 DNA microarray, average fold change increase over control (rhPBEF VILIa): 4 fold change | Map3k8 RNA (RT-PCR), average fold change increase over control (rhPBEF VILIa): 2 fold change | TNF-α DNA microarray, average fold change increase over control (rhPBEF VILIa): 23 fold change | TNF-α Protein (BAL levels by ELISA), average fold change increase over control (rhPBEF VILIa): 45 fold change | Significant probe sets [3]: 613 | Unique Up [3]: 375 | Unique gene (dysregulated genes) [3]: 493
